The source made the active and inactive calls. The rule behind the calls is not given here.

In assay [1] the test system is Trichinella spiralis. Description: Anthelmintic activity against Trichinella spiralis infected in mouse assessed as reduction in nematode level at 25 mg/kg, po and 25 mg/kg, sc administered 8 hrs post infection. The class given is functional.
Assay [2] deals with Trichinella spiralis. The assay is described as follows: Anthelmintic activity against Trichinella spiralis infected in sheep assessed as reduction in intestinal nematode burden at 25 mg/kg, po after 7 days post dose. The assay is classed as functional. As to conditions: 168 h.
Assay [3] has as its system Trichinella spiralis. Description: Anthelmintic activity against Trichinella spiralis infected in po dosed sheep assessed as reduction in intestinal nematode burden. The assay is classed as functional, organism-based.
Assay [4] relates to Trichinella spiralis. Description: Anthelmintic activity against Trichinella spiralis infected in sheep assessed as reduction in intestinal nematode burden at 15 mg/kg, po after 7 days post dose. As to conditions: 168 h. The class given is functional.

For orientation: inhibition in vivo means the share of the control response that was lost under treatment. Consider `CCCCCCN(C)C(=O)n1cc2cc(Cl)ccc2n1`, for which the inhibition in vivo at 25 mg/kg with Trichinella spiralis [1] was 40%. On to `COC(=O)n1cc2ccccc2n1`, for which the inhibition in vivo at 25 mg/kg in the assay on Trichinella spiralis [1] stood at 26%. As for `CCCCc1ccc2[nH]c(NC(=O)OC)nc2c1` [PARBENDAZOLE], the inhibition in vivo at 25 mg/kg with Trichinella spiralis [1] and in the assay on Trichinella spiralis [2] was 99% throughout.

As for `CCCCCCCN(C)C(=O)n1nc2ccccc2n1`, in the assay with Trichinella spiralis [3], the outcome was Active. In the case of `CCCCCCCN(C)C(=O)Nc1nc2ccccc2[nH]1`, the inhibition in vivo at 15 mg/kg with Trichinella spiralis [4] is 0%. Also, the inhibition in vivo at 25 mg/kg in the assay on Trichinella spiralis [1] was found to be 14%. The matching figures for `O=C(c1ccco1)n1cc2ccccc2n1`: 0% and 58%. Take `O=C(OCc1ccccc1)n1cc2ccccc2n1`: the inhibition in vivo at 15 mg/kg with Trichinella spiralis [4] is 0%. For the same compound, the inhibition in vivo at 25 mg/kg in the assay on Trichinella spiralis [1] worked out at 74%. On to `CCCCCCCN(C)C(=O)n1cc2ccccc2n1`, for which the inhibition in vivo at 15 mg/kg with Trichinella spiralis [4] was determined as 0%. Also, the inhibition in vivo at 25 mg/kg in the assay with Trichinella spiralis [1] was found to be 45%. Regarding `O=C(c1cnc2ccccc2n1)n1cc2ccccc2n1`, in the assay with Trichinella spiralis [1], the inhibition in vivo at 25 mg/kg was 36%. Regarding `COC(=O)n1ncc2ccccc21`, in the assay with Trichinella spiralis [1], the inhibition in vivo at 25 mg/kg came to 23%. Take `COC(=O)Nc1nc2ccccc2[nH]1` [CARBENDAZIM]: the inhibition in vivo at 25 mg/kg is 0% in the assay on Trichinella spiralis [1] and 98% with Trichinella spiralis [2]. For `O=C(Nc1nc2ccccc2[nH]1)c1ccco1`, the inhibition in vivo at 25 mg/kg in the assay on Trichinella spiralis [2] turned out to be 99%. Consider `O=C(c1ccco1)n1ncc2ccccc21`, for which the inhibition in vivo at 15 mg/kg in the assay with Trichinella spiralis [4] is 0%. For the same compound, the inhibition in vivo at 25 mg/kg with Trichinella spiralis [1] stood at 16%. In the case of `CCCCCCN(C)C(=O)n1ncc2ccc([N+](=O)[O-])cc21`, in the assay on Trichinella spiralis [1], the inhibition in vivo at 25 mg/kg amounted to 41%.

Source of the values: ChEMBL document CHEMBL3272154, “Synthesis of 1- and 2-substituted indazoles as anthelmintic agents” (1976).
